Where two headings read alike, the source gives them in different places. One block for each molecule: values may come before it.
Experiments:
[1] = target: muscarinic receptors in the CNS; conditions: cited from earlier work
muscarinic receptors [2] = conditions: known; in words; cited from earlier work
[3] = in words; cited from earlier work
muscarinic receptors [4] = conditions: in words; cited from earlier work
[5] = in words; cited from earlier work; remark: listed apart in the source
[6] = target: muscarinic acetylcholine receptors; assay: Inhibition of specific binding of 3H-Oxotremorine-M (3H-Oxo); parameters: species or system rat (male Wistar; conditions: rat cortex; 3H-Oxotremorine 1.0 nM; 20 mM Hepes pH 7.4; 30 min at 25° C.
Experimental: The pharmacological properties of the compounds of the present invention (Formula I) can be illustrated by determining their capability to inhibit the specific binding of ^3 H-Oxotremorine-M (^3 H-Oxo).
^3 H-Oxo labels muscarinic receptors in the CNS (with a preference for agonist domaines of the receptors). Three different sites are labelled by 3H-Oxo. These sites have affinity of 1.0, 20 and 3000 nM, respectively. Using the present experimental conditions only the high and medium affinity sites are determined. The inhibitory effects of compounds on ^3 H-Oxo binding reflects the affinity for muscarinic acetylcholine receptors.
All preparations are performed at 0°-4° C. unless otherwise indicated. Fresh cortex (0.1-1 g) from male Wistar rats (150-250 g) is homogenized for 5-10 s in 10 ml 20 mM Hepes pH: 7.4, with an Ultra-Turrax homogenizer. The homogenizer is rinsed with 10 ml of buffer and the combined suspension centrifuged for 15 min at 40,000×g. The pellet is washed three times with buffer. In each step the pellet is homogenized as before in 2×10 ml of buffer and centrifuged for 10 min at 40,000×g. The final pellet is homogenized in 20 mM Hepes pH: 7.4 (100 ml per g of original tissue) and used for binding assay. Aliquots of 0.5 ml is added 25 μl of test solution and 25 μl of ^3 H-Oxotremorine (1.0 nM, final concentration) mixed and incubated for 30 min at 25° C. Non-specific binding is determined in triplicate using Arecoline (1 μg/ml, final concentration) as the test substance. After incubation samples are added 5 ml of ice-cold buffer and poured directly onto Whatman GF/C glass fiber filters under suction and immediately washed 2 times with 5 ml of ice-cold buffer. The amount of radioactivity on the filters are determined by conventional liquid scintillation counting. Specific binding is total binding minus non-specific binding. Test substances are dissolved in 10 ml water (if necessary heated on a steam-bath for less than 5 minutes) at a concentration of 2.2 mg/ml. 25-75% inhibition of specific binding must be obtained before calculation of IC50.
The test value will be given as IC50 (the concentration (ng/ml) of the test substance which inhibits the specific binding of ^3 H-Oxo by 50%). [formula] where Co is specific binding in control assays and Cx is the specific binding in the test assay. (The calculations assume normal mass-action kinetics).

SMILES: C[N+](C)(C)CC#CCN1CCCC1=O [Compound 3H-Oxo, ^3 H-Oxotremorine-M]
Kd ([1]; high affinity site, read-out: affinity of 3H-Oxo, first (high affinity) site): 1 nM
Kd ([1]; medium affinity site, read-out: affinity of 3H-Oxo, second (medium affinity) site): 20 nM
Kd ([1]; third site, not determined under the present experimental conditions, read-out: affinity of 3H-Oxo, third site): 3000 nM

SMILES: COC(=O)C1=CCCN(C)C1 [arecoline, methyl 1-methyl-1,2,5,6-tetrahydropyridine-3-carboxylate]
muscarinic agonist or antagonist activity (muscarinic receptors [2]): cholinergic agonist
toxicity [3]: rather toxic compound
separation between central and peripheral muscarinic effects (muscarinic receptors [4]): small separation between central and peripheral muscarinic effects
biological half life [5]: very short biological half life

SMILES: CC(=O)OC1CN2CCC1CC2 (stereo not shown) [3-acetoxy-quinuclidine]
muscarinic agonist or antagonist activity (muscarinic receptors [2]): muscarinic agonist
toxicity [3]: the same as indicated for arecoline
separation between central and peripheral muscarinic effects (muscarinic receptors [4]): the same as indicated for arecoline
biological half life [5]: the same as indicated for arecoline

SMILES: CCCCOCCOc1nsnc1C1=CCCN(C)C1.O=C(O)C(=O)O [Compound 41, 3-(4-(2-butoxyethoxy)-1,2,5-thiadiazol-3-yl)-1,2,5,6-tetrahydro-1-methylpyridine oxalate]
Inhibition in vitro OXO BINDING (IC50: concentration which inhibits the specific binding of 3H-Oxo by 50%) [6]: 1.3 ng/mL

SMILES: CCCCOc1nsnc1C1=CCCN(C)C1.O=C(O)C(=O)O [Compound 4, 3-(4-butoxy-1,2,5-thiadiazol-3-yl)-1,2,5,6-tetrahydro-1-methylpyridine oxalate]
Inhibition in vitro OXO BINDING (IC50: concentration which inhibits the specific binding of 3H-Oxo by 50%) [6]: 0.5 ng/mL

Inhibition in vitro OXO BINDING (IC50: concentration which inhibits the specific binding of 3H-Oxo by 50%) [6]: 115 ng/mL
SMILES: CN1CCC=C(c2nsnc2N2CCOCC2)C1 [Compound 45, 3-(4-morpholino-1,2,5-thiadiazol-3-yl)-1,2,5,6-tetrahydro-1-methylpyridineoxalate]

Inhibition in vitro OXO BINDING (IC50: concentration which inhibits the specific binding of 3H-Oxo by 50%) [6]: 0.4 ng/mL
SMILES: C=CCOc1nsnc1C1=CCCN(C)C1.O=C(O)C(=O)O [Compound 24, 3-(4-(2-propenyloxy)-1,2,5-thiadiazol-3-yl)-1,2,5,6-tetrahydro-1-methylpyridine oxalate]

Inhibition in vitro OXO BINDING (IC50: concentration which inhibits the specific binding of 3H-Oxo by 50%) [6]: 0.9 ng/mL
SMILES: C=CCCOc1nsnc1C1=CCCN(C)C1.O=C(O)C(=O)O [Compound 11, 3-(4-(3-butenyloxy)-1,2,5-thiadiazol-3-yl)-1,2,5,6-tetrahydro-1-methylpyridine oxalate]

— US5712297A, “Piperdine compounds and their preparation and use” (Novo Nordisk A/S, priority 1989, dated 1998)
